Data from patent EP4806891A1 (Kangbaida (Sichuan) Biotechnology Co., Ltd., priority 2023, dated 2025).

target: T1, HEK-Blue-hTLR7 cells (Homo sapiens, UniProt Q9NYK1); assay: HEK-Blue-hTLR7 cell inhibition assay; assay type: cell-based; conditions: R848 0.8 µM, 16 h, OD 620 nm, read-out: TLR7 IC50
T1 construct: expressed in transfected cells; host or cells: HEK-Blue-hTLR7 cells (HEK293-derived reporter line)
T1 sequence (Q9NYK1 27-1049): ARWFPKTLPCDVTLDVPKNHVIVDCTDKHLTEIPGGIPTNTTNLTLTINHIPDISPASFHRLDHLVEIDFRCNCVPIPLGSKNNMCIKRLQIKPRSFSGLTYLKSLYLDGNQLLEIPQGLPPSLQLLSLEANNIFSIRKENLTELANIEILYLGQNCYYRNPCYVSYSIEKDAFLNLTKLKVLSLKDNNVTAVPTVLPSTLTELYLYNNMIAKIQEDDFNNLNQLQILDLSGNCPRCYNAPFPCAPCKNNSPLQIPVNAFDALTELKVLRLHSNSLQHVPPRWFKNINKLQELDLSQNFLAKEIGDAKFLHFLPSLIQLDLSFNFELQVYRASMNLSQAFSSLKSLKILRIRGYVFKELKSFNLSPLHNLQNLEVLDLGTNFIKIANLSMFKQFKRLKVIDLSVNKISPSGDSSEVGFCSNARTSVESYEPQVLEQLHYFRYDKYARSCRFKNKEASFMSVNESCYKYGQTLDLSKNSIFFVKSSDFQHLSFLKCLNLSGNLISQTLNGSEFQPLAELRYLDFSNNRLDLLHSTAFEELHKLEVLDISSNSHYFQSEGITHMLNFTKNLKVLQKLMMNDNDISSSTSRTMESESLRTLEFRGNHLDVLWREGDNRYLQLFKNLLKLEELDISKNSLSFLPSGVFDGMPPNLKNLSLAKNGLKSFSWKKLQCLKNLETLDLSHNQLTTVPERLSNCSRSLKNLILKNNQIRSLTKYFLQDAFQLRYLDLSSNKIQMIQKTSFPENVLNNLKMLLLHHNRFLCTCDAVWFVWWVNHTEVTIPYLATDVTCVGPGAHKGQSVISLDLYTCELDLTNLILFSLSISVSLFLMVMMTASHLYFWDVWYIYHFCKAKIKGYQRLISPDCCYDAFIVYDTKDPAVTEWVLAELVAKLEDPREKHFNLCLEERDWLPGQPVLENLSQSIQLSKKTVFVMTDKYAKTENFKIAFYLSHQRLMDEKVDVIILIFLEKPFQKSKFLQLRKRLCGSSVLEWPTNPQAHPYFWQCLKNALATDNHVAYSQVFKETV
How it was run: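 Cells were pre-incubated 4 h, then co-treated 16 h at 37 °C with compound (10 doses, 0.5–10000 nM final) plus R848 (0.8 µM for TLR7, 3 µM for TLR8) or ODN2006 (1 µM, TLR9). Reporter OD620 gave inhibition relative to DMSO blank and agonist-only controls; IC50 came from curve fitting.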

SMILES	IC50
CN1CCC(Oc2nnc([C@]34CN(c5ccc(C#N)n6ncc(F)c56)C[C@@]3(C(F)(F)F)C4)o2)CC1 [Compound 31, 3-fluoro-4-((1S,5R)-1-(5-((1-methylpiperidin-4-yl)oxy)-1,3,4-oxadiazol-2-yl)-5-(trifluoromethyl)-3-azabicyclo[3.1.0]hexan-3-yl)pyrazolo[1,5-a]pyridine-7-carbonitrile]	< 100 nM
FC(F)(F)c1ccc(N2C[C@]3(c4nnc(C5CCN(CC6CC6)CC5)o4)C[C@]3(C(F)(F)F)C2)c2cccnc12 [Compound 76, 2-(1-(cyclopropylmethyl)piperidin-4-yl)-5-((1S,5R)-5-(trifluoromethyl)-3-(8-(trifluoromethyl)quinolin-5-yl)-3-azabicyclo[3.1.0]hexan-1-yl)-1,3,4-oxadiazole]	< 100 nM
CN1CCC(Nc2nnc([C@]34CN(c5ccc(C#N)c6ncccc56)C[C@@]3(C(F)(F)F)C4)o2)CC1 [Compound 6, 5-((1S,5R)-1-(5-((1-methylpiperidin-4-yl)amino)-1,3,4-oxadiazol-2-yl)-5-(trifluoromethyl)-3-azabicyclo[3.1.0]hexan-3-yl)quinoline-8-carbonitrile]	< 100 nM
CN1CCC(Cc2nnc([C@]34CN(c5ccc(C#N)c6ncccc56)C[C@@]3(C(F)(F)F)C4)n2C)CC1 [Compound 38, 5-((1S,5R)-1-(4-methyl-5-((1-methylpiperidin-4-yl)methyl)-4H-1,2,4-triazol-3-yl)-5-(trifluoromethyl)-3-azabicyclo[3.1.0]hexan-3-yl)quinoline-8-carbonitrile]	< 1000 nM
CN(C)Cc1nnc([C@]23CN(c4ccc(C#N)c5ncccc45)C[C@@]2(C(F)(F)F)C3)o1 [Compound 42, 5-((1S,5R)-1-(5-((dimethylamino)methyl)-1,3,4-oxadiazol-2-yl)-5-(trifluoromethyl)-3-azabicyclo[3.1.0]hexan-3-yl)quinoline-8-carbonitrile]	< 100 nM
CN1CCC(c2nnc([C@]34CN(c5ccc(C#N)n6ncc(Cl)c56)C[C@@]3(C(F)(F)F)C4)o2)CC1 [Compound 84, 3-chloro-4-((1S,5R)-1-(5-(1-methylpiperidin-4-yl)-1,3,4-oxadiazol-2-yl)-5-(trifluoromethyl)-3-azabicyclo[3.1.0]hexan-3-yl)pyrazolo[1,5-a]pyridine-7-carbonitrile]	< 100 nM
N#Cc1ccc(N2C[C@]3(c4nnc(CCN5CCOCC5)o4)C[C@]3(C(F)(F)F)C2)c2cccnc12 [Compound 43, 5-((1S,5R)-1-(5-(morpholinoethyl)-1,3,4-oxadiazol-2-yl)-5-(trifluoromethyl)-3-azabicyclo[3.1.0]hexan-3-yl)quinoline-8-carbonitrile]	< 1000 nM
N#Cc1ccc(N2C[C@]3(c4nnc([C@H]5CC[C@H](N)CC5)o4)C[C@]3(C(F)(F)F)C2)c2cccnc12 [Compound 20, 5-((1S,5R)-1-(5-((1R,4S)-4-aminocyclohexyl)-1,3,4-oxadiazol-2-yl)-5-(trifluoromethyl)-3-azabicyclo[3.1.0]hexan-3-yl)quinoline-8-carbonitrile]	< 100 nM
CN1CCC(Oc2nnc([C@]34CN(c5ccc(C#N)c6ncnn56)C[C@@]3(C(F)(F)F)C4)o2)CC1 [Compound 97, 5-((1S,5R)-1-(5-((1-methylpiperidin-4-yl)oxy)-1,3,4-oxadiazol-2-yl)-5-(trifluoromethyl)-3-azabicyclo[3.1.0]hexan-3-yl)-[1,2,4]triazolo[1,5-a]pyridine-8-carbonitrile]	< 100 nM
CN1[C@@H]2CC[C@H]1C[C@H](c1nnc([C@]34CN(c5ccc(C(F)(F)F)c6ncccc56)C[C@@]3(C(F)(F)F)C4)o1)C2 [Compound 79, 2-((1R,3S,5S)-8-methyl-8-azabicyclo[3.2.1]octan-3-yl)-5-((1S,5R)-5-(trifluoromethyl)-3-(8-(trifluoromethyl)quinolin-5-yl)-3-azabicyclo[3.1.0]hexan-1-yl)-1,3,4-oxadiazole]	< 100 nM
CN1CC(Cc2nnc([C@]34CN(c5ccc(C#N)n6ncc(F)c56)C[C@@]3(C(F)(F)F)C4)o2)C1 [Compound 30, 3-fluoro-4-((1S,5R)-1-(5-((1-methylazetidin-3-yl)methyl)-1,3,4-oxadiazol-2-yl)-5-(trifluoromethyl)-3-azabicyclo[3.1.0]hexan-3-yl)pyrazolo[1,5-a]pyridine-7-carbonitrile]	< 100 nM
